{
  "source": "patent US12419917B2",
  "about": "“Compositions and methods for treatment of conditions using fractionated honey” (NDAL MFG INC, priority 2021, dated 2025)",
  "system": "SARS-CoV-2",
  "format": "cell-based",
  "conditions": "1-hour contact at 22 ± 2° C., cleanser 100%, ethanol 70%",
  "data": [
    {"smiles": "CCO", "note": "[Ethanol]", "values": [
      {"measurement": "LRV (log reduction value) compared to the virus control", "setting": "<1 log reduction not considered active", "value": ">4.3"},
      {"measurement": "Virus Titer", "setting": "virus control titer 5.0, limit of detection 0.7", "value": "<0.7 log10 CCID50 of virus per 0.1 mL"}
    ]}
  ]
}
